The results in this text go back to patent US20250282757A1, “ARYL ETHER-SUBSTITUTED HETEROCYCLIC COMPOUNDS AS GLP1R AGONISTS” (MINDRANK AI LTD., priority 2021, published 2025).

As a reminder, the pEC50 is −log10 of the EC50, conventionally taken in molar units.

Structures are written as SMILES. pEC50: −log10 of the molar value.

For this experiment, the target named is GLP-1R (Homo sapiens, UniProt P43220). Briefly: Agonist activity on GLP-1R, HTRF cAMP detection in stably transfected GLP-1R/HEK293 cells. It is filed as cell-based. The settings on record: for pEC50: 30 min incubation; for Max activity: relative to top concentration of reference GLP-1(7-37). On the procedure: Detection of Agonist Activity of the Test Compounds on GLP-1R
GLP-1R, sequence (P43220 24-463): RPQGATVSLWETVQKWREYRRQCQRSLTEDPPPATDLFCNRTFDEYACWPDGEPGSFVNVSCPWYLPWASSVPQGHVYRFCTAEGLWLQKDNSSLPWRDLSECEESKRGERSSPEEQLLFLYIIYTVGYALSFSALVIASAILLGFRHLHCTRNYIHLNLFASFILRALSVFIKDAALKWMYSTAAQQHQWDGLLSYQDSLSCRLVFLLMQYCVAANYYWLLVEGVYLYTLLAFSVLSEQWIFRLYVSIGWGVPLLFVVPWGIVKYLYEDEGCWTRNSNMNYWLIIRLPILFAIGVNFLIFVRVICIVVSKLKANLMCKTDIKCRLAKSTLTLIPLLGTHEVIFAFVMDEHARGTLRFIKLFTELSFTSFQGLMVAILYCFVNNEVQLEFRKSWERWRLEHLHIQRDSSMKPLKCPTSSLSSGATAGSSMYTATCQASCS
• 1) The test compound was dissolved in DMSO and diluted 4-fold with Bravo for a total of 10 concentration gradients (the starting concentration was 1 mM). […] HBSS (10 mL) pre-warmed at 37° C. was added, mixed gently, and centrifuged at 1000 rpm for 5 minutes. The supernatant was discarded and another 10 mL of […] was added and mixed gently. […] The plate was shaken to mix at 2000 rpm for 60 seconds. • 7) The cells in the 384-well plate were incubated in CO2 cell incubator at 37° C. for 30 min. • 8) 10 μL of HTRF cAMP detection solution was added to the 384-well plate, stick with sealing film, and incubated at room temperature for 1 hour. • 9) After 1 hour of incubation, the sealing film was removed. The plate was put into the EnVision microplate reader to read the values of OD665 nm and OD615 nm.

In the case of `CCn1cncc1Cn1c(Cc2ccc(Oc3cccc(COc4ccc(C#N)cc4F)n3)cc2)nc2ccc(C(=O)O)cc21` [Compound C28, 2-(4-((6-((4-cyano-2-fluorophenoxy)methyl)pyridin-2-yl)oxy)benzyl)-1-((1-ethyl-1H-imidazol-5-yl)methyl)-1H-benzo[d]imidazole-6-carboxylic acid], the pEC50 is 8.30.
As for `CCn1cncc1Cn1c(CN2CCC(Oc3ccc(F)c(COc4ccc(C#N)cc4F)n3)CC2)nc2ccc(C(=O)O)cc21` [Compound 3, 2-((4-((6-((4-cyano-2-fluorophenoxy)methyl)-5-fluoropyridin-2-yl)oxy)piperidin-1-yl)methyl)-1-((1-ethyl-1H-imidazol-5-yl)methyl)-1H benzo[d]imidazole-6-carboxylic acid], the pEC50 was 9.50 and the Max activity came to 128.3%.
The corresponding values for `CCn1cncc1Cn1c(CN2CCC(Oc3cccc(COc4ccc(C#N)cc4F)n3)CC2)nc2c(F)cc(C(=O)O)cc21` [Compound 2, 2-((4-((6-((4-cyano-2-fluorophenoxy)methyl)pyridin-2-yl)oxy)piperidin-1-yl)methyl)-1-((1-ethyl-1H-imidazol-5-yl)methyl)-4-fluoro-1H-benzo[d]imidazole-6-carboxylic acid] are 10.28 and 98.6%.
The corresponding values for `N#Cc1ccc(OCc2cccc(OC3CCN(Cc4nc5ccc(C(=O)O)nc5n4C[C@@H]4CCO4)CC3)n2)c(F)c1` [Compound 60, (S)-2-((4-((6-((4-cyano-2-fluorophenoxy)methyl)pyridin-2-yl)oxy)piperidin-1-yl)methyl)-3-(oxetan-2-ylmethyl)-3H-imidazo[4,5-b]pyridine-5-carboxylic acid] are 9.34 and 112.0%.
For `N#CCC1(Cn2c(CN3CCC(Oc4cccc(COc5ccc(Br)cc5F)n4)CC3)nc3ccc(C(=O)O)cc32)CC1` [Compound C26, 2-((4-((6-((4-bromo-2-fluorophenoxy)methyl)pyridin-2-yl)oxy)piperidin-1-yl)methyl)-1-((1-(cyanomethyl)cyclopropyl)methyl)-1H-benzo[d]imidazole-6-carboxylic acid], in that order: 9.67 and 117.3%.
On to `CCn1nccc1Cn1c(CN2CCC(Oc3cccc(COc4ccc(C#N)cc4F)n3)CC2)nc2ccc(C(=O)O)cc21` [Compound C39, 2-((4-((6-((4-cyano-2-fluorophenoxy)methyl)pyridin-2-yl)oxy)piperidin-1-yl)methyl)-1-((1-ethyl-1H-pyrazol-5-yl)methyl)-1H-benzo[d]imidazole-6-carboxylic acid], for which the pEC50 was 8.10 and the Max activity stood at 142.8%.
For `CCn1cncc1Cn1c(CN2CCC(Oc3cccc(OCc4ccc(C#N)cc4F)c3)CC2)nc2ccc(C(=O)O)cc21` [Compound S23, 2-((4-(3-((4-cyano-2-fluorobenzyl)oxy)phenoxy)piperidin-1-yl)methyl)-1-((1-ethyl-1H-imidazol-5-yl)methyl)-1H-benzo[d]imidazole-6-carboxylic acid], in that order: 8.83 and 98.0%.
In the case of `CCN1C(=O)CCC1Cn1c(CN2CCC(Oc3cccc(COc4ccc(C#N)cc4F)n3)CC2)nc2ccc(C(=O)O)cc21` (stereo not drawn) [Compound C34, 2-((4-((6-((4-cyano-2-fluorophenoxy)methyl)pyridin-2-yl)oxy)piperidin-1-yl)methyl)-1-((1-ethyl-5-oxopyrrolidin-2-yl)methyl)-1H-benzo[d]imidazole-6-carboxylic acid], the pEC50 was 7.96 and the Max activity amounted to 113.6%.
The corresponding values for `N#Cc1ccc(OCc2cccc(NC3CCN(Cc4nc5ccc(C(=O)O)cc5n4C[C@@H]4CCO4)CC3)n2)c(F)c1` [Compound C16, (S)-2-((4-((6-((4-cyano-2-fluorophenoxy)methyl)pyridin-2-yl)amino)piperidin-1-yl)methyl)-1-(oxetan-2-ylmethyl)-1H-benzo[d]imidazole-6-carboxylic acid] are 8.59 and 99.2%.
For `N#Cc1ccc(COc2cccc(COC3CCN(Cc4nc5ccc(C(=O)O)cc5n4C[C@@H]4CCO4)CC3)n2)c(F)c1` [Compound S22, (S)-2-((4-((6-((4-cyano-2-fluorobenzyl)oxy)pyridin-2-yl)methoxy)piperidin-1-yl)methyl)-1-(oxetan-2-ylmethyl)-1H-benzo[d]imidazole-6-carboxylic acid], in that order: 6.14 and 92.7%.
In the case of `CCn1cncc1Cn1c(CN2CCC(Oc3cccc(COc4ccc(C#N)cc4F)n3)CC2)nc2ccc(C(=O)O)nc21` [Compound 6, 2-((4-((6-((4-cyano-2-fluorophenoxy)methyl)pyridin-2-yl)oxy)piperidin-1-yl)methyl)-3-((1-ethyl-1H-imidazol-5-yl)methyl)-3H-imidazo[4,5-b]pyridine-5-carboxylic acid], the pEC50 was 9.88 and the Max activity was determined as 114.8%.
For `C#Cc1ccc(OCc2cccc(OC3CCN(Cc4nc5ccc(C(=O)O)cc5n4Cc4cncn4C(C)C)CC3)c2)c(F)c1` [Compound C29, 2-((4-(3-((4-ethynyl-2-fluorophenoxy)methyl)phenoxy)piperidin-1-yl)methyl)-1-((1-isopropyl-1H-imidazol-5-yl)methyl)-1H-benzo[d]imidazole-6-carboxylic acid], in that order: 8.17 and 121.6%.
The corresponding values for `N#CCC1(Cn2c(CN3CCC(Oc4cccc(COc5ccc(C#N)cc5F)n4)CC3)nc3ccc(C(=O)O)nc32)CC1` [Compound 138, 2-((4-((6-((4-cyano-2-fluorophenoxy)methyl)pyridin-2-yl)oxy)piperidin-1-yl)methyl)-3-((1-(cyanomethyl)cyclopropyl)methyl)-3H-imidazo[4,5-b]pyridine-5-carboxylic acid] are 9.17 and 125.0%.
The corresponding values for `N#CCC1(Cn2c(CN3CCC(Oc4ccc(F)c(COc5ccc(C#N)cc5F)n4)CC3)nc3ccc(C(=O)O)cc32)CC1` [Compound 135, 2-((4-((6-((4-cyano-2-fluorophenoxy)methyl)-5-fluoropyridin-2-yl)oxy)piperidin-1-yl)methyl)-1-((1-(cyanomethyl)cyclopropyl)methyl)-1H-benzo[d]imidazole-6-carboxylic acid] are 9.61 and 109.6%.
Take `CC(C)n1cncc1Cn1c(CN2CCC(Oc3cccc(COc4ccc(C#N)cc4F)c3)CC2)nc2ccc(C(=O)O)cc21` [Compound C32]: the pEC50 is 9.11 and the Max activity came out at 114.3%.
The corresponding values for `N#Cc1ccc(COc2cccc(OC3CCN(Cc4nc5ccc(C(=O)O)cc5n4C[C@@H]4CCO4)CC3)n2)c(F)c1` [Compound S2, (S)-2-((4-((6-((4-cyano-2-fluorobenzyl)oxy)pyridin-2-yl)oxy)piperidin-1-yl)methyl)-1-(oxetan-2-ylmethyl)-1H-benzo[d]imidazole-6-carboxylic acid] are 8.25 and 139.9%.
The corresponding values for `Cc1ncc(Cn2c(CN3CCC(Oc4cccc(COc5ccc(C#N)cc5F)n4)CC3)nc3ccc(C(=O)O)cc32)n1C` [Compound C6, 2-((4-((6-((4-cyano-2-fluorophenoxy)methyl)pyridin-2-yl)oxy)piperidin-1-yl)methyl)-1-((1,2-dimethyl-1H-imidazol-5-yl)methyl)-1H-benzo[d]imidazole-6-carboxylic acid] are 7.86 and 99.8%.
For `CCn1cncc1Cn1c(CN2CCC(Oc3cccc(COc4ccc(Cl)cc4F)c3)CC2)nc2ccc(C(=O)O)cc21` [Compound 7, 2-((4-(3-((4-chloro-2-fluorophenoxy)methyl)phenoxy)piperidin-1-yl)methyl)-1-((1-ethyl-1H-imidazol-5-yl)methyl)-1H-benzo[d]imidazole-6-carboxylic acid], in that order: 9.84 and 91.3%.
`CCn1cncc1Cn1c(Cc2ccc(Oc3cccc(COc4ccc(Cl)cc4F)n3)cc2)nc2ccc(C(=O)O)cc21` [Compound C24, 2-(4-((6-((4-chloro-2-fluorophenoxy)methyl)pyridin-2-yl)oxy)benzyl)-1-((1-ethyl-1H-imidazole-5-yl)methyl)-1H-benzo[d]imidazole-6-carboxylic acid]: the pEC50 was 8.78 and the Max activity turned out to be 76.88%.
In the case of `N#Cc1ccc(SCc2cccc(OC3CCN(Cc4nc5ccc(C(=O)O)cc5n4C[C@@H]4CCO4)CC3)n2)c(F)c1` [Compound C10, (S)-2-((4-((6-((4-cyano-2-fluorophenylthio)methyl)pyridin-2-yl)oxy)piperidin-1-yl)methyl)-1-(oxetan-2-ylmethyl)-1H-benzo[d]imidazole-6-carboxylic acid], the pEC50 is 8.38 and the Max activity came to 110.2%.
